These results are taken from US20120208204A1, “Compositions and Methods for Inhibiting Tumor Growth” (The Brigham and Women's Hospital, Inc., priority 2009, published 2012).

The test concerns SGK2. As to the kind of experiment: Inhibition of kinase activity by SGK2 inhibitory compounds, single concentration. It is filed as biochemical. Conditions: 10 μM compound. The source says: A library of compounds was screened for inhibitors of SGK2 and PAK3 activity by assaying phosphorylation of a generic peptide substrate either directly; or indirectly by inhibiting upstream kinase PDK1 from activating the enzyme in vitro. In both cases, the phosphorylated substrate was detected using a specific anti-phospho peptide antibody that is coupled with Eu^3+ Cryptate and XL665 conjugated with streptavidin. […] All initial hits were re-assayed as a dose response series with eight 3-fold dilutions and resulting final concentrations ranged from 0.9 nM to 20 μM.
As for `Oc1cc(O)c2c(c1)O[C@@]1(c3ccc(O)c(O)c3)Oc3cc(O)c4c(c3[C@@H]2[C@H]1O)O[C@H](c1ccc(O)c(O)c1)[C@H](O)[C@H]4c1c(O)cc(O)c2c1O[C@H](c1ccc(O)c(O)c1)[C@H](O)C2` [LDN-0022358], the “% Inhibition at 10 μM” value is on record as 93%.

On to `O=C(OC1Cc2c(O)cc(O)cc2OC1c1cc(O)c(O)c(O)c1)c1cc(O)c(O)c(O)c1` (stereo not shown) [LDN-0022369], for which the “% Inhibition at 10 μM” value is on record as 92%.

Turning to `CC1=C(C(=O)OCc2ccc3c(c2)OCO3)C(c2cccc(Oc3ccccc3)c2)NC(=O)N1` (stereo not shown) [LDN-0025562], the “% Inhibition at 10 μM” value was 60%.

As to `O=[N+]([O-])c1c(Cl)cc(O)c2c1C1C=CCC1C(c1ccccc1)N2` (stereo not shown) [LDN-0026088], the “% Inhibition at 10 μM” value is recorded as 70%.

`N#Cc1c(N)nc(SCC(=O)c2ccc(O)c(O)c2)c(C#N)c1-c1ccc(O)cc1` [LDN-0028574]: the “% Inhibition at 10 μM” value was determined as 91%.

Consider `CCOC(=O)C1C(=O)NC(SCC(=O)Nc2ccc(Br)cc2)=C(C#N)C1c1ccccc1OCC` (stereo not shown) [LDN-0028584], for which the “% Inhibition at 10 μM” value stood at 68%.

Take `N#Cc1c(N)nc(SCC(=O)Nc2ccc([N+](=O)[O-])c3ccccc23)c(C#N)c1-c1ccco1` [LDN-0028673]: the “% Inhibition at 10 μM” value is 71%.

Consider `O=C(CSc1nnc(-c2ccco2)[nH]1)c1ccc(O)c(O)c1` [LDN-0031187], for which the “% Inhibition at 10 μM” value came to 67%.

Turning to `O=C(CSc1nnc(-c2ccncc2)[nH]1)c1ccc(O)c(O)c1` [LDN-0031199], the “% Inhibition at 10 μM” value came out at 68%.

With `CC(=O)Oc1ccc(C2Nc3c(C(=O)O)ccc([N+](=O)[O-])c3C3C=CCC32)cc1` (stereo not shown) [LDN-0033447], the “% Inhibition at 10 μM” value came out at 65%.

With `O=C(C=Cc1ccco1)c1ccc2c(c1)C1C=CCC1C(c1ccc(Cl)cc1)N2` (stereo not shown) [LDN-0033450], the “% Inhibition at 10 μM” value is reported as 94%.

As to `NS(=O)(=O)c1ccc(CCNC(=O)c2ccc3c(=O)n(Cc4ccco4)c(=S)[nH]c3c2)cc1` [LDN-0036137], the “% Inhibition at 10 μM” value was 74%.

For the compound `O=C(NCCCN1CCCCCC1)c1ccc(Cn2c(=S)[nH]c3ccc(Br)cc3c2=O)cc1` [LDN-0036382], the “% Inhibition at 10 μM” value amounted to 67%.

Consider `O=C(Nc1ccc(O)c(-c2nc3ccccc3s2)c1)c1cccc(N2C(=O)CCC2=O)c1` [LDN-0041592], for which the “% Inhibition at 10 μM” value amounted to 74%.

As for `Cc1cc2c3c(c(Br)cc(S(=O)(=O)O)c3n1)C(=O)c1ccccc1-2` [LDN-0042012], the “% Inhibition at 10 μM” value was 87%.

In the case of `O=C(O)c1cc2c3c(c1)C1C=CCC1CN3CC1CC=CC21` (stereo not shown) [LDN-0043107], the “% Inhibition at 10 μM” value is reported as 73%.

Regarding `CSc1ccc(-c2nc(-c3ccc(Sc4ccccc4)cc3)c(-c3ccccc3)[nH]2)cc1` [LDN-0044047], the “% Inhibition at 10 μM” value came out at 65%.

Take `Oc1ccc(-c2nc(-c3ccc4sc5ccccc5c4c3)c(-c3ccccc3)[nH]2)cc1` [LDN-0044883]: the “% Inhibition at 10 μM” value is on record as 64%.

Take `Oc1ccc(-c2nc(-c3ccc4sc5ccccc5c4c3)c(-c3ccccc3)[nH]2)cc1O` [LDN-0044885]: the “% Inhibition at 10 μM” value is 70%.

For `COc1cccc(C2Nc3cccc4cccc(c34)N2)c1OC` [LDN-0045022], the “% Inhibition at 10 μM” value worked out at 73%.

`Oc1cccc(C2Nc3cccc4cccc(c34)N2)c1` [LDN-0045024]: the “% Inhibition at 10 μM” value amounted to 90%.

Consider `CCN(CC)c1ccc(C2Nc3cccc4cccc(c34)N2)c(O)c1` [LDN-0045032], for which the “% Inhibition at 10 μM” value is reported as 68%.

For the compound `Oc1ccccc1C1Nc2cccc3cccc(c23)N1` [LDN-0045035], the “% Inhibition at 10 μM” value was 89%.

`Oc1ccc(C2Nc3cccc4cccc(c34)N2)c(O)c1` [LDN-0045038]: the “% Inhibition at 10 μM” value is given as 91%.

As to `C=CCc1cccc(C2Nc3cccc4cccc(c34)N2)c1O` [LDN-0045040], the “% Inhibition at 10 μM” value was determined as 89%.

Take `CN(C)c1ccc(C2=Nc3cccc4cccc(c34)N2)cc1` [LDN-0047445]: the “% Inhibition at 10 μM” value is recorded as 79%.

Turning to `N#CC1=C(NC(=O)Cc2ccccc2)c2ccccc2CC12CCCCC2` [LDN-0047862], the “% Inhibition at 10 μM” value was found to be 95%.

As for `c1ccc(Sc2ccc(-c3nc(-c4ccccc4)[nH]c3-c3ccccc3)cc2)cc1` [LDN-0048956], the “% Inhibition at 10 μM” value was found to be 68%.

Take `C1=CC2c3cccc4c3N(CC2C1)CC1CC=CC41` (stereo not shown) [LDN-0050317]: the “% Inhibition at 10 μM” value amounted to 69%.

`O=c1c(O)c(-c2ccc(O)c(O)c2)oc2cc(O)cc(O)c12` [LDN-0052529]: the “% Inhibition at 10 μM” value is on record as 89%.

Turning to `O=c1c(O)c(-c2ccc(O)c(O)c2)oc2cc(O)ccc12` [LDN-0058389], the “% Inhibition at 10 μM” value is reported as 76%.

In the case of `CN(C)c1ccc(NC(=O)Nc2cccs2)cc1` [LDN-0058882], the “% Inhibition at 10 μM” value is listed as 61%.

Regarding `O=c1oc2cc(Br)c(O)c(Br)c2s1` [LDN-0060240], the “% Inhibition at 10 μM” value amounted to 94%.

In the case of `Nc1ccc2[nH]c(C=Cc3ccccc3)nc2c1` [LDN-0060426], the “% Inhibition at 10 μM” value was determined as 71%.

Consider `CN(C)c1ccc(C=Cc2nc3cc(N)ccc3[nH]2)cc1` [LDN-0060496], for which the “% Inhibition at 10 μM” value was found to be 67%.

As for `Nc1ccc2[nH]c(C=Cc3ccc(Cl)cc3)nc2c1` [LDN-0060498], the “% Inhibition at 10 μM” value was 68%.

Turning to `CN(C)c1ccc(-c2nc3cc(N)ccc3[nH]2)cc1` [LDN-0060537], the “% Inhibition at 10 μM” value was determined as 72%.

As to `O=c1oc2c(Br)c(O)c(Br)cc2s1` [LDN-0060733], the “% Inhibition at 10 μM” value is on record as 93%.

With `O=C(O)C1Nc2ccc(Br)cc2C2C=CCC12` (stereo not shown) [LDN-0061702], the “% Inhibition at 10 μM” value was 92%.

Consider `Cc1ccc(C)n1-c1ccc(O)c(C(=O)O)c1` [LDN-0062564], for which the “% Inhibition at 10 μM” value is listed as 90%.

As for `O=C(O)C1Nc2c(O)cccc2C2C=CCC12` (stereo not shown) [LDN-0062847], the “% Inhibition at 10 μM” value is listed as 95%.

Turning to `O=c1cc(-c2ccccc2)c2ccc(O)c(O)c2o1` [LDN-0063260], the “% Inhibition at 10 μM” value was 98%.

For the compound `Nc1ccc2oc3ccc(N)cc3c(=O)c2c1` [LDN-0063356], the “% Inhibition at 10 μM” value turned out to be 50%.

In the case of `Oc1ccccc1-c1cc(-c2ccco2)[nH]n1` [LDN-0064229], the “% Inhibition at 10 μM” value is on record as 85%.

As to `CN1c2ccccc2Sc2cc(N)ccc21` [LDN-0065927], the “% Inhibition at 10 μM” value is on record as 52%.

For `Nc1ccc2[nH]c(-c3ccco3)nc2c1` [LDN-0065931], the “% Inhibition at 10 μM” value was found to be 78%.

Consider `CC(C)COC(=O)c1ccc2c(c1)C1C=CCC1C(C(=O)O)N2` (stereo not shown) [LDN-0068134], for which the “% Inhibition at 10 μM” value is listed as 84%.

As to `N#Cc1c(-c2ccco2)cc(-c2cccs2)nc1N` [LDN-0071067], the “% Inhibition at 10 μM” value is reported as 80%.

Consider `Cc1c2ccccc2nc2c(F)c(NCCO)c(F)c(F)c12` [LDN-0071563], for which the “% Inhibition at 10 μM” value is 88%.

Regarding `Cc1c2ccccc2nc2c(F)c(NC(C)C)c(F)c(F)c12` [LDN-0071567], the “% Inhibition at 10 μM” value is 88%.

`COc1cccc(=O)c2c(C)n(CC(=O)c3ccccc3)c(C)c12` [LDN-0071595]: the “% Inhibition at 10 μM” value was found to be 64%.

As for `Oc1ccc(-c2csc(NCc3ccco3)n2)cc1` [LDN-0071858], the “% Inhibition at 10 μM” value is reported as 65%.

For the compound `CNC(=O)Oc1c(Br)cc2sc(=O)oc2c1Br` [LDN-0072860], the “% Inhibition at 10 μM” value is listed as 72%.

As for `CN(C)c1ccc2nc(SCC(=O)c3ccccc3)sc2c1` [LDN-0073108], the “% Inhibition at 10 μM” value came out at 70%.

`Nc1ccc2c(c1)OC1(CCCC1)O2` [LDN-0073507]: the “% Inhibition at 10 μM” value stood at 74%.

Turning to `CCCc1cc2c(cc1N)OCO2` [LDN-0073854], the “% Inhibition at 10 μM” value turned out to be 67%.

As to `Oc1c(Cl)cc(Cl)c2c1NCCC2` [LDN-0073973], the “% Inhibition at 10 μM” value is 67%.

Take `O=C1CC(N2CCCCC2)C=C1Nc1ccc(F)cc1` (stereo not shown) [LDN-0074168]: the “% Inhibition at 10 μM” value is 73%.

For `CCC(=O)N1CCc2cc(Br)cc(S(=O)(=O)Nc3ccc(Br)cc3)c21` [LDN-0074939], the “% Inhibition at 10 μM” value came to 67%.

In the case of `CC#CC1=C(CO)C(=O)C2OC2C1=O` (stereo not shown) [LDN-0080086], the “% Inhibition at 10 μM” value was found to be 71%.

On to `Oc1ccc(N=Cc2ccc[nH]2)cc1N=Cc1ccc[nH]1` [LDN-0085170], for which the “% Inhibition at 10 μM” value came out at 62%.

Turning to `Oc1ccc(Cl)cc1-c1cc(-c2ccco2)n[nH]1` [LDN-0086824], the “% Inhibition at 10 μM” value was 68%.

On to `Cc1sc(NC(=O)COc2cccc(F)c2)c(C#N)c1C` [LDN-0086947], for which the “% Inhibition at 10 μM” value came to 67%.

Consider `Oc1cccc2ccc(Nc3ccccn3)nc12` [LDN-0088017], for which the “% Inhibition at 10 μM” value amounted to 84%.

Consider `O=C(O)C1C2CC=CC2c2cc(Br)cc3c2N1CC1CC=CC31` (stereo not shown) [LDN-0088050], for which the “% Inhibition at 10 μM” value is on record as 67%.

For `c1coc(C2=Nc3cccc4cccc(c34)N2)c1` [LDN-0088682], the “% Inhibition at 10 μM” value came out at 80%.

`CCOc1ccc(NC(=O)CSc2ncnc3c2oc2ccccc23)cc1` [LDN-0094202]: the “% Inhibition at 10 μM” value came out at 78%.

As for `Cc1cc(N)c2ccccc2[n+]1CCCCCCCCCC[n+]1c(C)cc(N)c2ccccc21.[Cl-].[Cl-]` [LDN-0096422], the “% Inhibition at 10 μM” value came out at 79%.

As to `O=C(O)c1cc(O)c(=O)c2c(O)c(O)ccc2c1` [LDN-0096503], the “% Inhibition at 10 μM” value amounted to 73%.

In the case of `C=C1c2cccc(O)c2C(=O)C2=C(O)C3(O)C(=O)C(C(N)=O)=C(O)C(N(C)C)C3C(O)C12.Cl` (stereo not shown) [LDN-0096663], the “% Inhibition at 10 μM” value amounted to 70%.

In the case of `O=c1cc(-c2ccccc2)oc2cc(O)c(O)c(O)c12` [LDN-0096673], the “% Inhibition at 10 μM” value is 67%.

Take `Oc1cc(O)c2c(c1)OC(O)(c1ccc(O)c(O)c1)C(O)C2` (stereo not shown) [LDN-0096696]: the “% Inhibition at 10 μM” value worked out at 84%.

Consider `O=C(OC1Cc2c(O)cc(O)cc2OC1c1ccc(O)c(O)c1)c1cc(O)c(O)c(O)c1` (stereo not shown) [LDN-0096721], for which the “% Inhibition at 10 μM” value was 93%.

Take `O=c1c(O)cccc2cc(O)c(O)c(O)c12` [LDN-0096727]: the “% Inhibition at 10 μM” value is 94%.

`O=c1c(O)cccc2ccc(O)c(O)c12` [LDN-0096728]: the “% Inhibition at 10 μM” value is 87%.

Turning to `CC(=O)Oc1cc(-c2coc3cc(OC(C)=O)c(OC(C)=O)c(OC(C)=O)c3c2=O)cc(OC(C)=O)c1OC(C)=O` [LDN-0096738], the “% Inhibition at 10 μM” value is recorded as 96%.

The % Inhibition is the percentage by which the read-out fell short of the control. Low readings indicate a weak effect, high ones a strong effect.
